Assay results taken from patent publication US20220091128A1, “SYSTEM AND METHOD FOR LIGAND THERMAL ANALYSIS” (Portland State University, priority 2019, published 2022).
Like-named read-outs stand apart in the source and are kept apart here.

Experiments:
HSA [1] = target: T1, HSA (Homo sapiens, UniProt P02768); test: Drug screening: HSA binding constants from DSC thermograms; settings: for Measured HSA binding (cell spanning the measured KD columns; same in text): result in words
Description: Ligand solubilization: Stock solutions of aqueous insoluble ligands in organic solvents were pipetted into microcentrifuge tubes to yield a desired amount of drug for a 1 mL solution. The microcentrifuge tubes were placed into a vacuum concentrator (Savant SpeedVac Model SC100), and the organic solvents were evaporated, resulting in solid drug in the tube. To each tube, HSA is added at a predetermined concentration with standard buffer to provide a 1 mL working solution.
In total binding of 28 drug compounds to HSA was examined by obtaining thermograms.

HSA [2] = target: T1, HSA; design: purchased Sigma Aldrich (St. Louis, Mo.); settings: cited from earlier work; for Kd: binding to HSA, read-out: Average Literature KD; for reported HSA binding activity: literature report
[3] = target: T2, human serum albumin (HSA) (Homo sapiens, UniProt P02768); test: DSC thermograms of HSA with ligand (single-ligand titration); type: binding
T2 construct: purchased Sigma Aldrich (St. Louis, Mo.)
T2 sequence (P02768 25-609): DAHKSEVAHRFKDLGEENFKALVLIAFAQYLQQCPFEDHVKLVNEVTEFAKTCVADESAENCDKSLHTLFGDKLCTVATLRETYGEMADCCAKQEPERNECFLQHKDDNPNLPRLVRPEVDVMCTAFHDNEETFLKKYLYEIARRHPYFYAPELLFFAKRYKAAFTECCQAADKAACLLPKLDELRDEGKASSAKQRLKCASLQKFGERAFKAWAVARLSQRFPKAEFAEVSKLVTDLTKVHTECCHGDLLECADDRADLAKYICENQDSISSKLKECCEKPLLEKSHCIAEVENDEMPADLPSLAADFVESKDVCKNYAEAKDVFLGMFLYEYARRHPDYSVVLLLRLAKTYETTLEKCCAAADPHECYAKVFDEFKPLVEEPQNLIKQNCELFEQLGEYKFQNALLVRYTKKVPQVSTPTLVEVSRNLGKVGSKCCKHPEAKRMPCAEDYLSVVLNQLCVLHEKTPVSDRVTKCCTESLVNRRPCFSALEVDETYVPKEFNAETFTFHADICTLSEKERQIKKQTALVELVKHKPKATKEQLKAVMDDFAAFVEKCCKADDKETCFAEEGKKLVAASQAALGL
Description: Chemicals and reagents: Plasma and highly pure plasma proteins are sourced from commercial suppliers. Standard reagents are sourced from commercial suppliers. Samples are prepared in standard phosphate-buffered saline (PBS) buffer. In some examples, human plasma and serum albumin were purchased from Sigma Aldrich (St. Louis, Mo.) and received as lyophilized powder. Plasma was product number: P9523, lot number: SLBT0202. […] In vivo, the standard state of HSA is most certainly bound to some extent by fatty acids. Plasma and HSA stock solutions were prepared by re-suspending the appropriate amount of powder in buffer. Samples were prepared by diluting stock solutions to a final concentration of 1.5-2.0 mg/mL.
Protein concentration was approximately 2 mg/ml.
In a DSC melting experiment, the supplemental power supplied to the sample cell (in μW) necessary to keep the sample temperature equal to the reference temperature is continually monitored. […] Supplemental power is directly related to the molar heat capacity at constant pressure, ΔCp. Curves of ΔCp versus T provide an evaluation of the thermodynamic enthalpy. To enable direct comparisons in some cases, power (μW) versus T plots (instead of ΔCp versus T curves) were used for the following reason.
Analysis of DSC data was performed using the Nanoanalyze software package, version 3.7.5, provided by T.A. Instruments. […]
From the thermograms, semi-quantitative evaluations of the thermodynamic parameters ΔHcal, ΔScal and ΔGcal(37° C.) were obtained at each ligand concentration.
These curves were constructed from titrations of DM1 with HSA. The Tm and ΔGcal(37° C.) were evaluated. The values were normalized against standard HSA and plotted versus ligand concentration to provide the dose curves in FIG. 20A (Tm) and FIG. 20B (ΔGcal(37° C.)).
Natural HSA samples were prepared at pH 6.0 and pH 8.0 and examined by DSC. […] From DSC melting curves thermodynamic parameters for HSA/ligand mixtures were evaluated.

human plasma = test: DSC thermograms of plasma with ligand; type: binding
[4] = Average Measured KD, binding to HSA; single value or value marked 1)
[5] = Measured KD From TM, binding to HSA; single value or value marked 1)
[6] = Measured KD from ΔG^037, binding to HSA; single value or value marked 1)
[7] = read-out: Average Measured KD; binding to HSA; single value or value marked 1)
[8] = read-out: Measured KD From TM; binding to HSA; single value or value marked 1)
[9] = read-out: Measured KD from ΔG^037; binding to HSA; single value or value marked 1)

T1 sequence (P02768 25-609): as above

| Compound | Kd (HSA [1]; [4]) | Kd (HSA [1]; [5]) | Kd (HSA [1]; [6]) | Kd (HSA [2]) | further results |
| --- | --- | --- | --- | --- | --- |
| COCCc1ccc(OCC(O)CNC(C)C)cc1 (stereo not drawn) [Metoprolol (MEP), Metoprolol] | 11.1 µM | 3.04 µM | 19.2 µM | 74.1 µM |  |
| C[CH2][Hg][S]c1ccccc1C(=O)[O-].[Na+] [Thimerosal (TMS), Thimerosal] |  |  |  | 339 µM |  |
| CCCCCc1cc(O)c2c(c1)OC(C)(C)[C@@H]1CCC(C)=C[C@@H]21 [Δ9-tetrahydrocannabinol (THC), Δ9-tetrahydrocannabinol] |  |  |  | ≤ 0.1 µM | Kd (HSA [1]; [7]): 0.035 µM; Kd (HSA [1]; [8]): 0.025 µM; Kd (HSA [1]; [9]): 0.048 µM |
| O=C1OC2(c3ccc(O)cc3Oc3cc(O)ccc32)c2ccccc21 [Fluorescein (FSC), Fluorescein] | 68 µM | 79.8 µM | 56.2 µM | 212 µM |  |
| O=C([O-])CN1CCN(CC(=O)[O-])CCN(CC(=O)O)CCN(CC(=O)[O-])CC1.[Gd+3] [Dotarem (DOTA), gadoteric acid] |  |  |  |  | Measured HSA binding (cell spanning the measured KD columns; same in text) (HSA [1]): No Binding Detected; Measured HSA binding (cell spanning the measured KD columns; same in text) (HSA [1]; listed as Dotarem): no binding was observed; reported HSA binding activity (HSA [2]): not have any measurable HSA binding activity |
| CNC[C@H](O)[C@@H](O)[C@H](O)[C@H](O)CO.CNC[C@H](O)[C@@H](O)[C@H](O)[C@H](O)CO.O=C([O-])CN(CCN(CC(=O)[O-])CC(=O)O)CCN(CC(=O)O)C(COCc1ccccc1)C(=O)[O-].[Gd+3] (stereo not drawn) [Multihance (MH)] |  |  |  | 1950 µM | Kd (HSA [1]; [7]): 1340 µM; Kd (HSA [1]; [8]): 1380 µM; Kd (HSA [1]; [9]): 1290 µM |
| C[C@H](CS)C(=O)N1CCC[C@H]1C(=O)O [Captopril (CAP), Captopril] | 3.75 µM | 5.44 µM | 2.05 µM | 192 µM |  |
| CCN(CC)CCCC(C)Nc1ccnc2cc(Cl)ccc12 (stereo not drawn) [CQ, Chloroquine] |  |  |  |  | Implied number of sites [3]: 1; effect on fibrinogen melting transition peak (52° C.) of the plasma thermogram (human plasma): significant perturbation |
| CC(NC(C)(C)C)C(=O)c1cccc(Cl)c1 (stereo not drawn) [Bupropion (BPR), Bupropion] | 0.25 µM | 0.28 µM | 0.21 µM | 172 µM | Kd (HSA [1]; Average Measured KD, binding to HSA; second value marked 2)): 19.5 µM; Kd (HSA [1]; Measured KD From TM, binding to HSA; second value marked 2)): 28.8 µM; Kd (HSA [1]; Measured KD from ΔG^037, binding to HSA; second value marked 2)): 10.2 µM |
| CC(O)CN1CCN(CC(=O)[O-])CCN(CC(=O)[O-])CCN(CC(=O)[O-])CC1.[Gd+3] (stereo not drawn) [Prohance (PRO), gadoteridol] |  |  |  |  | reported HSA binding activity (HSA [2]): not display HSA binding activity |
| O=C([O-])CN(CCN(CC(=O)[O-])CC(COP(=O)(O)OC1CCC(c2ccccc2)(c2ccccc2)CC1)N(CC(=O)[O-])CC(=O)[O-])CC(=O)O.[Gd+3].[Na+] (stereo not drawn) [Ablavar (AB)] |  |  |  | 60.4 µM |  |
| C=CC1=C(C)/C(=C/c2[nH]c(Cc3[nH]c(/C=C4\NC(=O)C(C)=C4C=C)c(C)c3CCC(=O)O)c(CCC(=O)O)c2C)NC1=O [Bilirubin (BIL), Bilirubin] | 0.33 µM | 0.41 µM | 0.25 µM | 0.074 µM |  |
